Structures can show the parent of a compound that is named as a salt.
Target: T1, TXA2 synthetase (human platelet microsomes) (Homo sapiens, UniProt P24557)
T1 construct: human platelet microsomes (HPM); from tissue; host or cells: human platelets (microsomes)
T1 sequence (P24557 1-533): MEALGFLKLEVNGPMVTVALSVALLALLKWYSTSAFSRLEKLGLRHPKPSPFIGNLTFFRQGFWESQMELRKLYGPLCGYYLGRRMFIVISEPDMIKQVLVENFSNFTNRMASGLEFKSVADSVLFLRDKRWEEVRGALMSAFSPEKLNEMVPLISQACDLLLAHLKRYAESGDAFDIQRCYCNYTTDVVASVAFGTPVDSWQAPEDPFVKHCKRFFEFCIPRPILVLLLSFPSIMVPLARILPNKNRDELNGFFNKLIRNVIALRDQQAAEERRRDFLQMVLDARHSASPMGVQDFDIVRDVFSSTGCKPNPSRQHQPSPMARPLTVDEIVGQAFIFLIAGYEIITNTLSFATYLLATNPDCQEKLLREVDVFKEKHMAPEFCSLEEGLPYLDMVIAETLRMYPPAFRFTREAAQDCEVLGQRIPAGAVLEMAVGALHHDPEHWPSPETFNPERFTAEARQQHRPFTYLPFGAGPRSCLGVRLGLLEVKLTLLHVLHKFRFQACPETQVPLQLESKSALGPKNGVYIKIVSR
Assay: TXA2 inhibition test: TXA2 generated from PGH2 with human platelet microsomes, response of superfused rabbit aortic strips
Format: biochemical
Settings: human platelet microsomes + PGH2, rabbit aorta bioassay
Method: The compounds of the present invention were tested for TXA2 inhibition as follows:
Rabbit aortic strips were superfused in series with Krebs solution. Thromboxane A2 (TXA2) was generated by mixing prostaglandin H2 (PGH2) with human platelet microsomes (HPM).
Potential inhibitors were tested by comparing the response of the rabbit aorta to the amount of TXA2 produced by mixing PGH2 and HPM without the test compound in the reaction medium and then the amount of TXA2 produced when the test compound was added to the HPM 5 minutes before the HPM was mixed with PGH2. […] For a discussion of TXA2 synthetase inhibition testing see, e.g., R. Gorman, supra.

O=C(O)c1cc2cc(Cn3ccnc3)ccc2o1 [Example 3, 5-N-Imidazolylmethyl-benzofuran-2-carboxylic Acid, Sodium Salt]
effectiveness in inhibiting TXA2 formation (rank among tested compounds): most effective

— US4452986A, “Imidazolyl-substituted benzofurans” (The Upjohn Company, priority 1982, dated 1984)
